EC50, IC50 and inhibition data for nine compounds are collected here from patent publication US6632921B1, “Seryl-lysyl-based peptide and peptidomimetic inhibitors of N-myristoyl transferase as anti-infective agents” (G. D Searle & Co, priority 1995, dated 2003).

Experiment [1] has as its system Candida albicans, strain B311. Briefly: Antifungal susceptibility testing, microdilution broth, pH 5.4/30° C./YNB. Format: cell-based. The procedure:
Antifungal Screens were set up initially against Candida albicans, strain B311, and Cryotococcus neoformans, strain L210425. Both pathogens, (originally from the stock culture collection, Medical mycology research center, Washington university-Barnes hospital), were obtained from Dr.Kobayashi, Prof.of infectious diseases, Washington University, St.Louis, Mo.
All cultures are maintained at 30° C. on Sabouraud's dextrose agar slants and subcultured at monthly intervals to fresh medium. All inocula for susceptibility testing are prepared in yeast nitogen base(YNB, Difco) broth.
A loopful of growth from Sabouraud dextrose agar slant is inoculated into 4 ml of YNB broth media and incubated at 30° C. overnight (18-24 hrs) with constant agitation (Gyratory Shaker, New Brunswick Scientific). Prior to setting up susceptibility testing, the organisms are counted in a hemocytometer, and diluted as needed into assay media.
1) (Assay at DH 5.4/30° C. Incubation/YNB Media).
Antifungal assays were carried out initially by a modification of the method published by Jones, et. al; (1), and communicated to Searle by Dr. Kobayashi, Washington University. [R. N. Jones et al, Manual of Clinical Microbiology, 4th ed., (1985)]
The antifungal susceptibility testing consists of a microdilution broth procedure performed in 96 well microtiter plates (Costar, cat#3799). Briefly, test compounds from a 20 mM stock solution in DMSO are diluted into sterile, deionized water (final DMSO concentration not exceeding 1%), to yield 2× the desired concentration (100 uM, 10 uM and 1 uM for an initial screen, or a selected concentration range in serial 2 fold dilutions for EC50 determination). One hundred microliters (100 ul) of each concentration is dispensed into triplicate wells of a 96 well microtiter plate. Appropriate dilutions of a suspension of C.albicans (1×10^6 cells/ml) in 2× YNB is distributed into each of the wells, including growth control wells containing no test compound as well as control wells with 0.5% DMSO. Amphotericin B at 0.05, 1 and 5 ug/ml is included in each assay plate as a positive control. The plates are incubated at 30° C. and cell growth is scored by reading the absorbance at 590 nm on an Elisa plate reader(Dynatech, MR.5000).
A general note: Broth dilution looks for growth in wells or tubes with falling amounts of substance.

Another experiment addresses T1, Candida albicans NMT (Candida albicans, UniProt P30418).
T1 construct: made in house; host or cells: E. coli
T1 sequence (P30418 1-451): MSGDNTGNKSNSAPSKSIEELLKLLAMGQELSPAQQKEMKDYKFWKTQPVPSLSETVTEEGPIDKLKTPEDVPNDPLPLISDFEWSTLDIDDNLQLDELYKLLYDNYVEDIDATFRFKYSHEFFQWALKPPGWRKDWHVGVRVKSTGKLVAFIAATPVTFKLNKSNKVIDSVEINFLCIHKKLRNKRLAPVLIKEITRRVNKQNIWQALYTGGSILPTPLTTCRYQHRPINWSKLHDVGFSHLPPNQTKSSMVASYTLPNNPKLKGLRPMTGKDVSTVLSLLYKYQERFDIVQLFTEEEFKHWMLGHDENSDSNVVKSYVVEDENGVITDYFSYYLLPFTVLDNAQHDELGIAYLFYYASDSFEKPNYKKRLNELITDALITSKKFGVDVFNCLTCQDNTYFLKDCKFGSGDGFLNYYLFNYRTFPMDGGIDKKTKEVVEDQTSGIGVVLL
As to the kind of experiment: NMT enzyme inhibition assay (radiochemical HPLC end-point), Candida NMT. Format: biochemical. The conditions noted are these: for IC50: Table V, read-out: IC50 caNMT. Here is the method:
Recombinant Candida albicans and human NMTs were expressed and purified from E. coli using previously described protocols. [D. A. Towler et al, Proc. Natl. Acad. Sci. USA, 84, 2707-2712 (1987); R. C. Weigand et al, J. Biol. Chem., 267, 8591-8598 (1992); R. J. Duronio et al, Proc. Natl. Acad. Sci. USA, 89, 4129-4133 (1992)] The ability of compounds to inhibit Candida NMT enzymatic activity was assessed using a radiochemical HPLC end-point assay as described previously for Saccharomyces cerevisiae and human NMTs. [D. Towler et al, Proc. Natl. Acad. Sci. USA, 83, 2812-2816 (1986); W. J. Rocque et al, J. Biol. Chem., 268, 9964-9971 (1991)] The donor substrate [^3H]myristoyl-coenzyme A was enzymatically synthesized from [^3H]myristic acid (50 Ci/mmol, Amersham, Arlington Heights, Ill.) and coenzyme A (Fluka Chemical Corp., Ronkonkoma, N.Y.), and purified as described previously. [W. J. Rocque et al, J. Biol. Chem., 268, 9964-9971 (1991)] The peptide acceptor substrate GNAASARR-NH2 was prepared by solid-phase peptide synthesis using the t-Boc amino acid methodology, followed by HF treatment and reverse-phase HPLC purification. Inhibitor stock solutions were prepared at 22 mM in DMSO; the final concentration of DMSO in each assay was 0.5% (v/v). Inhibition assays were carried out by combining variable amounts of inhibitor or buffer with […] of [^3H]myristoyl-coenzyme A (1 μCi, 9.09 Ci/mmol) and 2.2 nmoles of GNAASARR-NH2 in a total volume of 60 μL of 0.2 M N-[2-hydroxy-ethyl]piperazine-N′-[2-ethanesulfonic acid], pH 7.4, 2 mM DL-dithiothreitol, 0.2 mM ethylene glycol-bis-(β-aminoethyl ether) N,N,N′,N′-tetraacetic acid, and initiating the reaction by the addition of 50 μL of a Candida NMT solution (7-12 ng/50 μL). Assays with human NMT were identical except that they used 60-75 ng/50 μL of enzyme solution and 0.22 nmoles of GNAASARR-NH2. The reaction was quenched after 10 minutes at 24° C. by the addition of ice-cold MeOH, and the reaction products were separated and measured using C4 reverse-phase HPLC (Vydac 214TP10415; Separations Group, Hesperia, Calif.) and in-line scintillation counting using a Radiomatic A250 (Packard Instruments, Downers Grove, Ill.) and Ecolite(+) (ICN Biomedical, Costa Mesa, Calif.) as the scintillant. Selectivity was determined by calculating the ratio of the IC50 against human NMT to the IC50 against C. albicans NMT.

Where [2] appears, read: B311, 24 h, pH 5.4, read-out: caEC50 24 hours.
Setting [3] is: read-out: % inhibition of caNMT.
Where [4] appears, read: B311, 24 hours, Table V (values agree with pH 5.4 assay), read-out: caEC50 24 hours.

Where two headings read alike, the source gives them in different places. Non-standard residues stand in square brackets, D forms with d. Residues, ends and D or L forms follow the SMILES beside them. Cha = N[C@@H](CC1CCCCC1)C(=O)O; Aun = NCCCCCCCCCCC(=O)O

On to `CC(C)C[C@H](NC(=O)[C@H](CCCCN)NC(=O)[C@H](CO)NC(=O)CCCCCCCCCCN)C(=O)O` [Example 4, L-leucine, N-[[(11-amino-undecanoyl)-L-seryl]-L-lysyl]-, bis-trifluoroacetate] (H-[Aun]SKL-OH), for which the EC50 in experiment [1] (setting [2]) is 63 µM. Also, on Candida albicans NMT, the IC50 (in general, the concentration at which inhibition is half-maximal) is 6.7 µM.
Regarding `Cc1nccn1CCCCc1ccc(CC(=O)N[C@@H](CO)C(=O)N[C@@H](CCCCN)C(=O)N[C@H](CC2CCCCC2)C(=O)O)cc1` [Example 11, D-alanine, 3-cyclohexyl-N-[N^2-[N-[[4-[4-(2-methyl-1H-imidazol-1-yl)butyl]phenyl]acetyl]-L-seryl]-L-lysyl]-, bis-trifluoroacetate], the EC50 in experiment [1] (setting [2]) is above 100 µM. Besides, the IC50 at Candida albicans NMT worked out at 18 µM.
Regarding `Cc1nccn1CCCCc1ccc(CC(=O)N[C@@H](CO)C(=O)N[C@@H](CCCCN)C(=O)N[C@@H](Cc2ccccc2)C(=O)O)cc1` [Example 6, L-Alanine, 3-phenyl-N-[N^2-[N-[[4-[4-(2-methyl-1H-imidazol-1-yl)butyl]phenyl]acetyl]-L-seryl]-L-lysyl]-, bis-trifluoroacetate], the EC50 in experiment [1] (setting [2]) came out at 80 µM. In addition, at Candida albicans NMT (setting [3]), the inhibition (commonly the drop in the measured response relative to a control, in per cent) at 10 µM amounted to 36%.
With `CC[C@H](C)[C@H](NC(=O)[C@H](CCCCN)NC(=O)[C@H](CO)NC(=O)Cc1ccc(CCCCn2ccnc2C)cc1)C(=O)O` [Example 7, L-iso-leucine, N-[N^2-[N-[[4-[4-(2-methyl-1H-imidazol-1-yl)butyl]phenyl]acetyl]-L-seryl]-L-lysyl]-, bis-trifluoroacetate], the EC50 in experiment [1] (setting [4]) was found to be 97 µM. For the same compound, on Candida albicans NMT, the IC50 worked out at 100 µM.
As for `Cc1nccn1CCCCc1ccc(CC(=O)N[C@@H](CO)C(=O)N[C@@H](CCCCN)C(=O)NC(CC(=O)O)C2CCCCCCC2)cc1` (mixture of isomers) [Example 10, Lysinamide, N-[1-Cyclooctyl-2-carboxyethyl]-N^2-[N-[[4-[4-(2-methyl-1H-imidazol-1-yl)butyl]phenyl]acetyl]-L-seryl]-, ±, bis-trifluoroacetate], the EC50 in experiment [1] (setting [4]) is above 100 µM. At Candida albicans NMT (@ 10 μM, read-out: % inhibition of caNMT), the inhibition at 10 µM is 40%.
Turning to `NCCCCCCCCCCC(=O)N[C@@H](CO)C(=O)N[C@@H](CCCCN)C(=O)N[C@@H](CC1CCCCC1)C(=O)O` [Example 3, L-Alanine, 3-cyclohexyl-N-[[(11-amino-undecanoyl)-L-seryl]-L-lysyl]-, bis-trifluoroacetate] (H-[Aun]SK[Cha]-OH), the EC50 in experiment [1] (setting [2]) was found to be 33 µM. For the same compound, the inhibition at 11 µM at Candida albicans NMT (setting [3]) was 80%.
With `Cc1nccn1CCCCc1ccc(CC(=O)N[C@@H](CO)C(=O)N[C@@H](CCCCN)C(=O)N[C@@H](CC(C)C)C(=O)O)cc1` [Example 8, L-Leucine, N-[N^2-[N-[[4-[4-(2-Methyl-1H-imidazol-1-yl)butyl]phenyl]acetyl]-L-seryl]-L-lysyl]-, bis-trifluoroacetate], the EC50 in experiment [1] (setting [2]) is above 100 µM. The inhibition at 10 µM at Candida albicans NMT (setting [3]) turned out to be 78%.
For the compound `Cc1nccn1CCCCc1ccc(CC(=O)N[C@@H](CO)C(=O)N[C@@H](CCCCN)C(=O)NC(CC(=O)O)C2CCCCC2)cc1` (mixture of isomers) [Example 9, Lysinamide, N-[1-Cyclohexyl-2-carboxyethyl]-N^2-[N-[[4-[4-(2-methyl-1H-imidazol-1-yl)butyl]phenyl]acetyl]-L-seryl]-, ±, bis-trifluoroacetate], the EC50 in experiment [1] (setting [4]) is above 100 µM. For the same compound, the IC50 on Candida albicans NMT came out at 6 µM.
Take `Cc1nccn1CCCCc1ccc(CC(=O)N[C@@H](CO)C(=O)N[C@@H](CCCCN)C(=O)N[C@@H](C)C(=O)O)cc1` [Example 5, L-alanine, N-[N^2-[N-[[4-[4-(2-methyl-1H-imidazol-1-yl)butyl]phenyl]acetyl]-L-seryl]-L-lysyl]-, bis-trifluoroacetate]: in experiment [1] (setting [2]), the EC50 was determined as 68 µM. Further, at Candida albicans NMT (setting [3]), the inhibition at 10 µM was determined as 27%.
